Reference: paper PMC6156125, “Chemistry and Hypoglycemic Activity of GPR119 Agonist ZB-16” (Frontiers in Endocrinology, 2018)
In brackets after ≈: the same amount, converted by molar mass. Several values for one entry are separate records, joined by “and”; a condition that tells them apart may be missing. Equal entries are not always repeated. Where two headings read alike, the source gives them in different places.

Tests used:
[1] = tested on: intact fasted female Wistar rats; assay: Hypoglycemic action in intact rats after single oral administration; assay type: in vivo, rat; conditions: 0.1–1 mg/kg oral
Method: Blood glucose levels were evaluated in the peripheral blood (from the tail vein) of intact fasted (6 h) female Wistar rats using a glucometer Contour TS (Bayer, Germany) at 60, 120, and 180 min after single oral administration of each ZB-09 analogs (in doses of 0.1, 1, and 10 mg/kg). The female animals were used because of their advantages in toxicological studies shown by several authors ([23]).

[2] = tested on: rats with streptozotocin-nicotinamide (STZ-NA) induced T2D; assay: Hypoglycemic activity after single oral administration in T2D rat model; assay type: in vivo; conditions: single oral 1 mg/kg, fasted STZ-NA T2D rats, over a 3 h period
Method: Procedures were performed in 40 female Wistar rats weighing 250–280 g. Streptozotocin-nicotinamide-induced rat model of T2D was used ([24], [25]). Briefly, streptozotocin (Sigma, St. Louis, MO, USA) was administered i.p. to overnight fasted rats (65 mg/kg in 100 mmol/l citrate buffer, Ph 4.5). Nicotinamide (Sigma, St. Louis, MO, USA) (230 mg/kg) dissolved in saline was administered i.p. 15 min before streptozotocin. STZ-NA T2D had been confirmed 72 h after in rats with blood glucose levels in a range 9–14 mmol/l measured in fasting (6 h) conditions. […] […] For OGTT rats received an oral dose of […] glucose dissolved in saline; blood glucose levels were monitored every 30 min for 2 h after glucose administration. Sitagliptin dose was chosen in accordance with published data ([26]).

[3] = Pharmacokinetics in vivo after single oral or intravenous administration; parameters: species or system rat; conditions: rats, 10 mg/kg; for Vd: read-out: Vz
Method: The pharmacokinetics of ZB-16 in a dose of 10 mg/kg after single oral or intravenous administration was studied in 6 male Wistar rats weighing 250–280 g. The blood from the tail vein (200 μL) was collected before and at 0, 0.25, 0.5, 1, 2, 4, 8, 12, and 24 h after ZB-16 administration. The blood concentrations of the test compounds in animals were evaluated using HPLC-MS/MS. Basic pharmacokinetic parameters were calculated using a non-model method and WinNonlin Professional 6.0 (Pharsight Corporation, Mountain View, CA, USA) based on the experimental concentration-time data obtained on each animal.

physchem = conditions: Britton-Robinson universal buffer, kinetic from dmso stock
[4] = Biotransformation in vitro, microsomal stability (human); assay type: in vitro ADME
Method: The metabolism of the compounds was studied in commercially available microsomal fractions derived from human and rat hepatocytes. Test compounds (0.5 μM) were incubated with microsomal fractions in the presence of NADPH during 30 min in a shaker at 37°C. Reactions were stopped at 0, 5, 10, 15, and 30 min by adding acetonitrile. After proteins precipitation, the remaining amount of the test compound in the supernatant was detected with high performance liquid chromatography tandem-mass spectrometry (HPLC-MS/MS) method using Agilent 1260 liquid chromatograph (Agilent Technologies, Santa Clara, CA, USA) and a QTRAP6500 triple quadrupole mass spectrometer with a TurboIonSpray electro-spraying module (ABSciex, Foster City, CA, USA) ([15]). Incubation was performed twice, with at least 2 measurements for each replicate (n ≥ 3). The half-life (T1/2), the clearance in vitro (CLint) and the remaining amount of substance (% of initial quantity) were calculated.

CYP2C9 = target: T1, CYP2C9 (Homo sapiens, UniProt P11712); assay: CYP inhibition, Vivid CYP450 Screening Kit; assay type: in vitro ADME; conditions: 0.0046 to 10 μM tested
T1 construct: purchased Invitrogen Corporation, Carlsbad, CA, USA
Method: (§1) Briefly, the reaction was initiated by adding NADP^+ and a substrate converted to fluorescent derivates by specific CYP isozyme. The reaction was terminated by adding 1M Tris. The fluorescence of the reaction product, which was proportional to CYP isozyme activity, was measured. […] The minimal signal was defined as the signal obtained without enzyme incubation. The inhibitory action of test compounds on the CYP isozymes was expressed in terms of median inhibitory concentration (IC50).

CYP2D6 = target: T2, CYP2D6 (Homo sapiens, UniProt P10635); assay: CYP inhibition, Vivid CYP450 Screening Kit; assay type: in vitro ADME; conditions: 0.0046 to 10 μM tested
T2 construct: purchased Invitrogen Corporation, Carlsbad, CA, USA
Method: as §1

CYP3A4 = target: T3, CYP3A4 (Homo sapiens, UniProt P08684); assay: CYP inhibition, Vivid CYP450 Screening Kit; assay type: in vitro ADME; conditions: 0.0046 to 10 μM tested
T3 construct: purchased Invitrogen Corporation, Carlsbad, CA, USA
Method: as §1

[5] = male, Wistar, rat, plasma, iv, i.v. injection, Mean ± SD (n = 3)
[6] = male, Wistar, rat, plasma, iv, i.v. injection, individual rat
[7] = male, Wistar, rat, plasma, po, oral administration, Mean ± SD (n = 3)
[8] = male, Wistar, rat, plasma, po, oral administration, individual rat
[9] = oral administration, individual rat

T3 sequence (P08684 whole entry): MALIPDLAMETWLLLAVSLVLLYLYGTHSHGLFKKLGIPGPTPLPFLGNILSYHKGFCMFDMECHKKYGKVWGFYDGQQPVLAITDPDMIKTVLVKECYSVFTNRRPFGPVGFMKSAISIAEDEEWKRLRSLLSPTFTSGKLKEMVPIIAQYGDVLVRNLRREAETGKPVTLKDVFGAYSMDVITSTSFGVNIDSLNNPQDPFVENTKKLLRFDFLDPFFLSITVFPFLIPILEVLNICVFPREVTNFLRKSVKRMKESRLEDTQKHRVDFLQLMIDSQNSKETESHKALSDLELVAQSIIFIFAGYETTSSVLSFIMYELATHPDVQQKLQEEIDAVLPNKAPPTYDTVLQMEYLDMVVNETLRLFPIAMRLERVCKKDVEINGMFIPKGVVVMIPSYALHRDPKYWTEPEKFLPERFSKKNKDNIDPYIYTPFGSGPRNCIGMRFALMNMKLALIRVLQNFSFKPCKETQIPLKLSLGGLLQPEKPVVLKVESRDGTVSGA
T2 sequence (P10635 whole entry): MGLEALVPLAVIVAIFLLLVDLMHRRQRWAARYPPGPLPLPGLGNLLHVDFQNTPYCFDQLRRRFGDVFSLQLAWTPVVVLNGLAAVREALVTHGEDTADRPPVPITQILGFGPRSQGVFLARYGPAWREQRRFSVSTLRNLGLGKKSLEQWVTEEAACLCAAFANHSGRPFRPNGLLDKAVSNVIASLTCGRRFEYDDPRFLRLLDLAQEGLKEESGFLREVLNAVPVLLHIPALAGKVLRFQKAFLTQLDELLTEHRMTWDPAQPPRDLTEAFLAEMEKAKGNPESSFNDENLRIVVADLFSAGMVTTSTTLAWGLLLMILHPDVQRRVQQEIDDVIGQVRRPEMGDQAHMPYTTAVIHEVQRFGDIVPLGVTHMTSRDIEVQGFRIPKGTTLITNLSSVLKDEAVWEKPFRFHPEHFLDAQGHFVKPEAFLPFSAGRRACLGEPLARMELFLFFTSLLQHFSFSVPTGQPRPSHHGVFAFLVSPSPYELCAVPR
T1 sequence (P11712 whole entry): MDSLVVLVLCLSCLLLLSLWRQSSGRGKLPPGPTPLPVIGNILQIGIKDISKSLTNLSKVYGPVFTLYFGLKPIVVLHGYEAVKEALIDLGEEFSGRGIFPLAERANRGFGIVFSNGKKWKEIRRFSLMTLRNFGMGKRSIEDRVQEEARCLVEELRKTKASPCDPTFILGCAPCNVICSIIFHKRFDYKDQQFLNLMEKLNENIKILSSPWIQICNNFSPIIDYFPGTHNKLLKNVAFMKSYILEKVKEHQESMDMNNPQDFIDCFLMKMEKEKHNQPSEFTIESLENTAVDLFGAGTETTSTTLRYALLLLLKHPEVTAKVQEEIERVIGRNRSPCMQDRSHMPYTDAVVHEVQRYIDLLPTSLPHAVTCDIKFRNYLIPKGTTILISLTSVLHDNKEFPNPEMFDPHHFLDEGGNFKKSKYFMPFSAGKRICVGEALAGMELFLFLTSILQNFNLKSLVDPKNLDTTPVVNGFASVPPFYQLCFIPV

O=S1(=O)COc2cc(-c3ccc(OCC4CCN(c5ncc(Cl)cn5)CC4)c(F)c3)ccc21 [ZB-16]
blood glucose levels after single oral administration [1]: significant decrease | decrease of blood glucose levels [2]: 24% | AUC(0-t) ([3]; male, Wistar, plasma, iv, i.v. injection, individual rat, read-out: AUC 0-t): 244 ng·h/mL | Tmax ([3]; male, Wistar, plasma, oral administration, individual rat): 4 h | half-life ([3]; male, Wistar, rat, plasma, read-out: half-life): > 720 min | bioavailability ([3]; male, Wistar, rat, plasma, oral vs i.v., read-out: absolute bioavailability): 8% | AUC(0-inf) [3, 5]: 339 ± 97.2 ng·h/mL | clearance [3, 5]: 100 mL/min/kg | k el [3, 5]: 1.39e-05 s⁻¹ | AUC(0-t) ([3]; male, Wistar, rat, plasma, iv, i.v. injection, Mean ± SD (n = 3), read-out: AUC 0-t): 218 ± 30.4 ng·h/mL | C0 ([3]; male, Wistar, rat, plasma, iv, i.v. injection, Mean ± SD (n = 3), read-out: C0): 32 ± 8.7 ng/mL | MRT last ([3]; male, Wistar, rat, plasma, iv, i.v. injection, Mean ± SD (n = 3), read-out: MRT last): 9 ± 1 h | Vd [3, 5]: 123 ± 18.1 L/kg | half-life ([3]; male, Wistar, rat, plasma, iv, i.v. injection, Mean ± SD (n = 3), read-out: t1/2 (converted)): 900 ± 348 min | AUC(0-inf) [3, 6]: 441 ng·h/mL | clearance [3, 6]: 83.3 mL/min/kg | k el [3, 6]: 8.33e-06 s⁻¹ | AUC(0-t) ([3]; male, Wistar, rat, plasma, iv, i.v. injection, individual rat, read-out: AUC 0-t): 226 ng·h/mL | C0 ([3]; male, Wistar, rat, plasma, iv, i.v. injection, individual rat, read-out: C0): 29 ng/mL | MRT last ([3]; male, Wistar, rat, plasma, iv, i.v. injection, individual rat, read-out: MRT last): 10 h | Vd [3, 6]: 139 L/kg | half-life ([3]; male, Wistar, rat, plasma, iv, i.v. injection, individual rat, read-out: t1/2 (converted)): 1260 min | AUC(0-inf) [3, 7]: 119 ± 11.9 ng·h/mL | k el [3, 7]: 1.67e-05 s⁻¹ | AUC(0-t) ([3]; male, Wistar, rat, plasma, po, oral administration, Mean ± SD (n = 3), read-out: AUC 0-t): 85 ± 17.6 ng·h/mL | Cmax ([3]; male, Wistar, rat, plasma, po, oral administration, Mean ± SD (n = 3), read-out: Cmax): 6 ± 1.2 ng/mL | MRT last ([3]; male, Wistar, rat, plasma, po, oral administration, Mean ± SD (n = 3), read-out: MRT last): 9 ± 1 h | half-life ([3]; male, Wistar, rat, plasma, po, oral administration, Mean ± SD (n = 3), read-out: t1/2 (converted)): 780 ± 312 min | AUC(0-inf) [3, 8]: 124 ng·h/mL | k el [3, 8]: 1.11e-05 s⁻¹ | AUC(0-t) ([3]; male, Wistar, rat, plasma, po, oral administration, individual rat, read-out: AUC 0-t): 69 ng·h/mL | Cmax ([3]; male, Wistar, rat, plasma, po, oral administration, individual rat, read-out: Cmax): 4 ng/mL | MRT last ([3]; male, Wistar, rat, plasma, po, oral administration, individual rat, read-out: MRT last): 10 h | half-life ([3]; male, Wistar, rat, plasma, po, oral administration, individual rat, read-out: t1/2 (converted)): 1140 min | AUC 0−∞ ([3]; i.v. injection, individual rat): 247 ng·h/mL and 329 ng·h/mL | AUC(0-t) ([3]; i.v. injection, individual rat): 184 ng·h/mL | C0 ([3]; i.v. injection, individual rat): 26 ng/mL and 42 ng/mL | CL ([3]; i.v. injection, individual rat): 8 L/h/kg | Kel ([3]; i.v. injection, individual rat): 0.06 h⁻¹ | MRT last ([3]; i.v. injection, individual rat): 8 h | Vz ([3]; i.v. injection, individual rat): 127 L/kg and 104 L/kg | t1/2 ([3]; i.v. injection, individual rat): 11 h and 12 h | AUC 0−∞ [3, 9]: 128 ng·h/mL and 105 ng·h/mL | AUC(0-t) [3, 9]: 104 ng·h/mL and 83 ng·h/mL | Cmax [3, 9]: 7 ng/mL | Kel [3, 9]: 0.07 h⁻¹ | t1/2 [3, 9]: 10 H | solubility (physchem; pH 2, aqueous buffer): 52 µM (≈ 25.5 µg/mL) | solubility (physchem; pH 4, aqueous buffer): < 3 µM | solubility (physchem; pH 7, aqueous buffer): 4 µM (≈ 1.96 µg/mL) | ER ([4]; Human microsomal fraction): 0.76 | CLh ([4]; Human microsomal fraction, in mL/min/kg (unit assumed)): 16.43 | microsomal CLint at 0.5 μM ([4]; liver microsomal fraction): 65.2 µL/min/mg | half-life at 0.5 μM ([4]; liver microsomal fraction, 0.5 μM, NADPH, read-out: t1/2, min): 42.5 min | IC50 (CYP2C9): > 10 µM | IC50 (CYP2D6): > 10 µM | IC50 (CYP3A4): > 10 µM
